Assay results published in patent US9352015B2, “Antimicrobial peptides” (priority 2009, dated 2016).
≈ marks a conversion by molar mass, not a printed value. Where “and” joins values, the source holds several entries; their conditions need not be identical. Equal entries are not always repeated. Where two headings read alike, the source gives them in different places.

Tests used:
Acinetobacter baumannii = format: cell-based
Experimental: (§1) Minimal inhibitory concentrations (MICs) are determined using a standard microtiter dilution method, with 3 sets of determinations, in LB (Luria-Bertani) no-salt medium (10 g of tryptone and 5 g of yeast extract per liter). In some cases, Mueller Hinton (MH) medium or Brain Heart Infusion (BHI) medium is used.
(§2) Briefly, cells were grown overnight at 37° C. in LB and diluted in the same medium. Serial dilutions of the peptides are added to the microtiter plates in a volume of 100 μl followed by 10 μl of bacteria to give a final inoculum of 5×10^5 colony-forming units/ml. Plates are incubated at 37° C. for 24 hours and MICs determined as the lowest peptide concentration that inhibited growth. Alternatively, minimal inhibitory concentrations are determined using a standard microtiter dilution method in a Mueller-Hinton (MH) medium. Briefly, cells are grown overnight at 37° C. in MH broth and diluted in the same medium. In some cases, serial dilutions of the peptides are added to the microtiter plates in a volume of 100 μl followed by 10 μl of bacteria to give a final inoculum of 1×10^5 colony-forming units/ml. Plates are incubated at 37° C. for 24 hours and MICs are determined as the lowest peptide concentration that inhibited growth.
The biological activities of these six peptide analogs was determined against 11 clinical isolated of Acinetobacter baumannii (Table 9). Please note that the activities are reported in micromolar rather than microgram/ml. This allows a direct comparison on a molar basis with the effectiveness of molecules of different molecular weights whether peptides disclosed herein or antibiotics which in general are smaller in molecular mass. […] These are the highest antimicrobial activities observed in studies of antimicrobial peptides derived by modifying the peptide sequence of SEQ ID NO:24 (D1). D22 has the best hemolytic activity of the six analogs (D17-D22) and a therapeutic index of […] compared to […] for D1 (Table 9). D22 has no apparent advantage over D1 as determined in these experiments.

[1] = Hemolytic activity against human erythrocytes (HC50 / MHC, microtiter dilution); format: cell-based; conditions: human, 1% human erythrocytes, pH 7.4
Experimental: Hemoglobin release was determined spectrophotometrically at 570 nm. The hemolytic activity was determined as the peptide concentration that caused 50% hemolysis of erythrocytes after 18 h (HC50). […] HC50 was determined by a plot of peptide concentration versus percent lysis.

[2] = RP-HPLC retention as measure of overall peptide hydrophobicity; format: physicochemical; conditions: pH 2, room temperature
Experimental: Crude and purified peptides were analyzed on an Agilent 1100 series liquid chromatograph (Little Falls, Del.). Runs were performed on a Zorbax 300 SB-C8 column (150×2.1 mm I.D.; 5 μm particle size, 300 Å pore size) from Agilent Technologies using linear AB gradient (1% acetonitrile/min) and a flow rate of 0.25 ml/min, where eluant A was 0.2% aqueous TFA, pH 2 and eluant B was 0.2% TFA in acetonitrile.

Pseudomonas aeruginosa = conditions: for MIC PAO 1: 37° C., 24 h, strain PAO1; for MIC GM (geometric mean of the MIC values): six P. aeruginosa strains; for MIC CP 204: strain CP204; for MIC M 2: strain M2; for MIC PA 14: strain PA14; for MIC PAK: strain PAK; for MIC WR 5: strain WR5
[3] = RP-HPLC temperature profiling (peptide self-association parameter PA); format: physicochemical; conditions: RP-HPLC temperature profiling 5-80° C., pH 2, relative to control peptide C
Experimental: Temperature profiling analyses were performed on the same column in 3° C. increments, from 5° C. to 80° C., using a linear AB gradient of 0.5% acetonitrile/min, as described previously (30, 53, 92, 93).
Peptide self-association (i.e., the ability to oligomerize/dimerize) in aqueous solution is a very important parameter for antimicrobial activity (53, 92, 93). Without wishing to be bound by any particular theory, the present inventors postulated that monomeric random-coil antimicrobial peptides are best suited to pass through the capsule and cell wall of microorganisms prior to penetration into the cytoplasmic membrane, induction of α-helical structure and disruption of membrane structure to kill target cells (93). Thus, if the self-association ability of a peptide in aqueous media is too strong (e.g., forming stable folded dimers through interaction of their non-polar faces) this could decrease the ability of the peptide to dissociate to monomer, in addition oligomerization of the peptide can prevent it from effectively passing through the capsule and cell wall to reach the membrane. The ability of the peptides in the present study to self-associate was determined by the technique of RP-HPLC temperature profiling at pH 2 (29, 30, 38). The reason pH 2 is used to determine self-association of cationic AMPs is that highly positively charged peptides are frequently not eluted from reversed-phase columns at pH 7 due to non-specific binding to negatively charged silanols on the column matrix. This is not a problem at pH 2 since the silanols are protonated (i.e., neutral) and non-specific electrostatic interactions are eliminated. At pH 2, the interactions between the peptide and the reversed-phase matrix involve ideal retention behavior, i.e., only hydrophobic interactions between the preferred binding domain (nonpolar face) of the amphipathic molecule and the hydrophobic surface of the column matrix are present (39). […] Control peptide C is a monomeric random coil peptide in both aqueous and hydrophobic media; thus, its linear decrease in peptide retention behavior with increasing temperature within the range of 5° C. to 80° C. represents only the general effects of temperature due to greater solute diffusivity and enhanced mass transfer between the stationary and mobile phase at higher temperatures (55). To allow for these general temperature effects, the data for the control peptide was subtracted from each temperature profile as shown in FIG. 2B. Thus, the peptide self-association parameter, PA, represents the maximum change in peptide retention time relative to the random coil peptide C. Note that the higher the PA value, the greater the self-association.

[4] = tested on: Methicillin Resistant Staphylococcus aureus (MRSA) and Staphylococcus aureus; format: cell-based
Experimental: as §1, §2
Identification of Antimicrobial Peptides for Gram-positive Bacteria. In a manner similar to testing against gram-negative bacteria, experiments were carried out to screen the 14 peptides used to identify antimicrobial peptides with significant activity against A. baumanii shown above against 20 different clinical isolates of Methicillin Resistant Staphylococcus aureus (MRSA) and Staphylococcus aureus.

| Compound | MIC GM (geometric mean) (Acinetobacter baumannii) [µM] | HC50 at 18 h [1] | Hydrophobicity (retention time in RP-HPLC) [2] | MIC PAO 1 (Pseudomonas aeruginosa; Brain Heart Infusion medium) [µg/mL] | MIC GM (geometric mean of the MIC values) (Pseudomonas aeruginosa; Brain Heart Infusion medium) [µg/mL] | MIC CP 204 (Pseudomonas aeruginosa; Brain Heart Infusion medium) [µg/mL] | MIC M 2 (Pseudomonas aeruginosa; Brain Heart Infusion medium) [µg/mL] | MIC PA 14 (Pseudomonas aeruginosa; Brain Heart Infusion medium) [µg/mL] | MIC PAK (Pseudomonas aeruginosa; Brain Heart Infusion medium) [µg/mL] | MIC WR 5 (Pseudomonas aeruginosa; Brain Heart Infusion medium) [µg/mL] | MIC PAO 1 (Pseudomonas aeruginosa; Mueller Hinton medium) [µg/mL] | MIC GM (geometric mean of the MIC values) (Pseudomonas aeruginosa; Mueller Hinton medium) [µg/mL] | MIC CP 204 (Pseudomonas aeruginosa; Mueller Hinton medium) [µg/mL] | MIC M 2 (Pseudomonas aeruginosa; Mueller Hinton medium) [µg/mL] | MIC PA 14 (Pseudomonas aeruginosa; Mueller Hinton medium) [µg/mL] | MIC PAK (Pseudomonas aeruginosa; Mueller Hinton medium) [µg/mL] | MIC WR 5 (Pseudomonas aeruginosa; Mueller Hinton medium) [µg/mL] | PA (dimerization / self-association parameter) [3] | MIC GM (geometric mean) [4] [µM] | other results |
| --- | --- | --- | --- | --- | --- | --- | --- | --- | --- | --- | --- | --- | --- | --- | --- | --- | --- | --- | --- | --- |
| CC[C@@H](C)[C@@H](NC(=O)[C@@H](C)NC(=O)[C@@H](CCCCN)NC(=O)[C@@H](CC(C)C)NC(=O)[C@@H](CC(C)C)NC(=O)[C@H](NC(=O)[C@@H](CCCCN)NC(=O)[C@@H](CC(C)C)NC(=O)[C@@H](C)NC(=O)[C@@H](CCCCN)NC(=O)[C@@H](CCCCN)NC(=O)[C@@H](CCCCN)NC(=O)[C@@H](C)NC(=O)[C@@H](CCCCN)NC(=O)[C@@H](CO)NC(=O)[C@@H](Cc1ccccc1)NC(=O)[C@H](NC(=O)[C@@H](CCCCN)NC(=O)[C@@H](CC(C)C)NC(=O)[C@@H](Cc1ccccc1)NC(=O)[C@@H](CO)NC(=O)[C@@H](CCCCN)NC(=O)[C@@H](Cc1c[nH]c2ccccc12)NC(=O)[C@@H](CO)NC(C)=O)[C@H](C)O)[C@H](C)O)C(=O)N[C@H](CO)C(=O)N[C@H](CCCCN)C(N)=O [Peptide D21, Ac-SWKSFLKTFSKAKKKALKTLLKAISK-amide] | 1.1 (≈ 3.33 µg/mL) | 88.5 µg/mL and 29.3 µM | 93.77 min | 15.6 (≈ 5.16 µM) | 6.2 | 15.6 (≈ 5.16 µM) | 3.9 (≈ 1.29 µM) | 3.9 (≈ 1.29 µM) | 3.9 (≈ 1.29 µM) | 3.9 (≈ 1.29 µM) | 7.8 (≈ 2.58 µM) | 6.2 | 15.6 (≈ 5.16 µM) | 15.6 (≈ 5.16 µM) | 0.5 (≈ 0.165 µM) | 3.9 (≈ 1.29 µM) | 15.6 (≈ 5.16 µM) | 6.00 | 7.3 (≈ 22.1 µg/mL) | – |
| CC[C@@H](C)[C@@H](NC(=O)[C@@H](C)NC(=O)[C@@H](CCCCN)NC(=O)[C@@H](CC(C)C)NC(=O)[C@@H](CC(C)C)NC(=O)[C@H](NC(=O)[C@@H](CCCCN)NC(=O)[C@@H](CC(C)C)NC(=O)[C@@H](C)NC(=O)[C@@H](CCCCN)NC(=O)[C@@H](CCCCN)NC(=O)[C@@H](CCCCN)NC(=O)[C@@H](C)NC(=O)[C@@H](CCCCN)NC(=O)[C@@H](CO)NC(=O)[C@@H](Cc1ccccc1)NC(=O)[C@H](NC(=O)[C@@H](CCCCN)NC(=O)[C@@H](CC(C)C)NC(=O)[C@@H](Cc1ccccc1)NC(=O)[C@@H](CO)NC(=O)[C@@H](CCCCN)NC(=O)[C@@H](Cc1c[nH]c2ccccc12)NC(=O)[C@@H](CCCCN)NC(C)=O)[C@H](C)O)[C@H](C)O)C(=O)N[C@H](CO)C(=O)N[C@H](CCCCN)C(N)=O [Peptide D22, Ac-KWKSFLKTFSKAKKKALKTLLKAISK-amide] | 0.8 (≈ 2.45 µg/mL) | 249 µg/mL and 81.3 µM | 90.7 min and 90.67 min | 15.6 (≈ 5.09 µM) | 9.8 | 31.3 (≈ 10.2 µM) | 3.9 (≈ 1.27 µM) | 3.9 (≈ 1.27 µM) | 7.8 (≈ 2.55 µM) | 15.6 (≈ 5.09 µM) | 3.9 (≈ 1.27 µM) | 7.0 | 31.3 (≈ 10.2 µM) | 15.6 (≈ 5.09 µM) | 0.5 (≈ 0.163 µM) | 3.9 (≈ 1.27 µM) | 31.3 (≈ 10.2 µM) | 5.13 | 12.1 (≈ 37.1 µg/mL) | Acinetobacter baumannii MICGM (Acinetobacter baumannii; geometric mean, 11 different isolates, 24 hours at 37° C.): 0.8 µM; Pseudomonas aeruginosa MICGM (Pseudomonas aeruginosa; geometric mean, 6 different isolates, 24 hours at 37° C.): 2.3 µM |
| CC[C@@H](C)[C@@H](NC(=O)[C@@H](C)NC(=O)[C@@H](CO)NC(=O)[C@@H](CC(C)C)NC(=O)[C@@H](CC(C)C)NC(=O)[C@H](NC(=O)[C@@H](CCCCN)NC(=O)[C@@H](CC(C)C)NC(=O)[C@@H](C)NC(=O)[C@@H](CCCCN)NC(=O)[C@@H](CCCCN)NC(=O)[C@@H](CCCCN)NC(=O)[C@@H](C)NC(=O)[C@@H](CCCCN)NC(=O)[C@@H](CO)NC(=O)[C@@H](Cc1ccccc1)NC(=O)[C@H](NC(=O)[C@@H](CCCCN)NC(=O)[C@@H](CC(C)C)NC(=O)[C@@H](Cc1ccccc1)NC(=O)[C@@H](CO)NC(=O)[C@@H](CO)NC(=O)[C@@H](Cc1c[nH]c2ccccc12)NC(=O)[C@@H](CO)NC(C)=O)[C@H](C)O)[C@H](C)O)C(=O)N[C@H](CO)C(=O)N[C@H](CO)C(N)=O [Peptide D18, Ac-SWSSFLKTFSKAKKKALKTLLSAISS-amide] | 0.9 (≈ 2.61 µg/mL) | 55 µg/mL and 19 µM | 97.87 min | 10.4 (≈ 3.59 µM) | 14.7 | 41.7 (≈ 14.4 µM) | 10.4 (≈ 3.59 µM) | 10.4 (≈ 3.59 µM) | 10.4 (≈ 3.59 µM) | 20.8 (≈ 7.17 µM) | 7.8 (≈ 2.69 µM) | 9.8 | 15.6 (≈ 5.38 µM) | 7.8 (≈ 2.69 µM) | 7.8 (≈ 2.69 µM) | 7.8 (≈ 2.69 µM) | 15.6 (≈ 5.38 µM) | 7.21 | 17.1 (≈ 49.6 µg/mL) | – |
